Tests used:
Format in all cases: biochemical
PDE4A1A = target: T1, PDE4A1A (Homo sapiens, UniProt P27815); experiment: PDE4 inhibitory activity assay (FAM-cAMP enzymatic reaction), PDE4A1A
T1 construct: purchased BPS 60040
Method: (§1) The compounds of the present disclosure were tested for their inhibitory activity (IC50 value) against PDE4A1A, PDE4B1, and PDE4D2.
(§2) Positive compound: Trequinsin (Sigma, Cat No. T20S7).
(§3) Instrument: Wallac Victor Muti-lable counter (Pekin Elmer) Steps of assay:
(§4) PDE enzymatic reaction; • 1) PDE was dissolved in 1× reaction solution to prepare 2× enzyme solution; • 2) FAM-cAMP was dissolved in 1× reaction solution to prepare 2× substrate solution; • 3) Corresponding volume of the compound in DMSO was transferred to the reaction plate through Echo 550; • 4) 2× enzyme solution was added into the corresponding wells of the reaction plate and incubated with the compound solution for 15 minutes at room temperature; • 5) 2× substrate solution was added into the corresponding well of the reaction plate to initiate the reaction; • 6) After the reaction plate was incubated at room temperature for 30 min, the reaction was terminated by adding reaction stopping solution. The reaction plate was incubated at room temperature for another 60 minutes;
(§5) Inhibition rates were calculated with Excel; and IC50 for each compound was calculated with Graphpad prism.

PDE4B1 = target: T2, PDE4B1 (Homo sapiens, UniProt Q07343); experiment: PDE4 inhibitory activity assay (FAM-cAMP enzymatic reaction), PDE4B1
T2 construct: purchased BPS 60041
Method: as §1, §2, §3, §4, §5

PDE4D2 = PDE4D2 (Homo sapiens, UniProt Q08499); experiment: PDE4 inhibitory activity assay (FAM-cAMP enzymatic reaction), PDE4D2
Method: as §1, §2, §3, §4, §5

[1] = compared with Apremilast and Example 11 of WO2018036470 (WX011)

T2 sequence (Q07343 whole entry): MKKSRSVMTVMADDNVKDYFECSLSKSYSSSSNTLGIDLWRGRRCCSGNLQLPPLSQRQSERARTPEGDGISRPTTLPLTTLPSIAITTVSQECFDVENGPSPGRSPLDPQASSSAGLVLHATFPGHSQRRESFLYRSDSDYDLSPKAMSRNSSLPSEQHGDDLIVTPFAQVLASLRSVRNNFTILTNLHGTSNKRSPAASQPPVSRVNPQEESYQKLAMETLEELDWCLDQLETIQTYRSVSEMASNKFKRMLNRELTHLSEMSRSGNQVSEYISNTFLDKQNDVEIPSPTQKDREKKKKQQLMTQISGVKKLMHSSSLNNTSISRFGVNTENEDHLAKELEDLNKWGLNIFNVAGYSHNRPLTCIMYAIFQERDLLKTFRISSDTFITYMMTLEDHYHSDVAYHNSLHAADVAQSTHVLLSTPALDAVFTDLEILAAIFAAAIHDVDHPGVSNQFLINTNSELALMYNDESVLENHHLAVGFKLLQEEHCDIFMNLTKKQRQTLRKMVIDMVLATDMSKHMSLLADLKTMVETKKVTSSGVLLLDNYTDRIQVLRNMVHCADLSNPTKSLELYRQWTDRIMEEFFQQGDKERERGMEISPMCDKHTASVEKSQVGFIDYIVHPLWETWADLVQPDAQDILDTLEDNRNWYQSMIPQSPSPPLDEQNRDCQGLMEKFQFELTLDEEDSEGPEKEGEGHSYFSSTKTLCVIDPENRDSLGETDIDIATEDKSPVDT
Chain of PDE4D2 (Q08499 303-809): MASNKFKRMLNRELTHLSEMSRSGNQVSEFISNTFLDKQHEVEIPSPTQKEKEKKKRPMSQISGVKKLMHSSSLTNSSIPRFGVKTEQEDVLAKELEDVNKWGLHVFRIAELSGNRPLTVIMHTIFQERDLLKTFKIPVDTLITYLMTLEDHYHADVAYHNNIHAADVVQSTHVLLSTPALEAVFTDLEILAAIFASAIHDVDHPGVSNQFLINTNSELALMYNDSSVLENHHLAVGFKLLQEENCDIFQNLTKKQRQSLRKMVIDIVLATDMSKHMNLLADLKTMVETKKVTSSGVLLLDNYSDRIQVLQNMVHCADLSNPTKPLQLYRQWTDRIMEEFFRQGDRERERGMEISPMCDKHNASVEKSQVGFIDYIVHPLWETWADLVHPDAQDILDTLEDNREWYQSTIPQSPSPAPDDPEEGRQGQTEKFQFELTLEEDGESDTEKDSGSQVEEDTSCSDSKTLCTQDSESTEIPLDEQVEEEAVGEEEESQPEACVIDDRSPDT
T1 sequence (P27815 1-647 isoform P27815-4): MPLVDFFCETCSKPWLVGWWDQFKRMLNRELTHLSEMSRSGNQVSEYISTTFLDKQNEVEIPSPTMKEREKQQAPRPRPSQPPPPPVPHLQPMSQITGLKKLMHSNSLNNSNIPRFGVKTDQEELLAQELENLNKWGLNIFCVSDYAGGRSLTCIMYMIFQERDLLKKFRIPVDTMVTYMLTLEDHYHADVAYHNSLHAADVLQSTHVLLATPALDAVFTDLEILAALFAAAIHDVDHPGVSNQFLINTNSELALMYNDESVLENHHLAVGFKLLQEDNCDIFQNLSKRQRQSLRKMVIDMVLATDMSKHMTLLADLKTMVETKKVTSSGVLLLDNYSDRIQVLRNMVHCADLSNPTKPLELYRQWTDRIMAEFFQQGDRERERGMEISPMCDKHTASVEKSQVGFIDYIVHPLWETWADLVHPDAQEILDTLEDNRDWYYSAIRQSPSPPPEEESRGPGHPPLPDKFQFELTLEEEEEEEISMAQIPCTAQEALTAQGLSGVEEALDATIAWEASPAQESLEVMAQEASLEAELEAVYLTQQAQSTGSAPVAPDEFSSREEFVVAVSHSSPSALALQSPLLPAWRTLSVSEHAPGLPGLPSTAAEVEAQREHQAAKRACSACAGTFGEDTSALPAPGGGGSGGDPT

| Structure (SMILES) | PDE4 A1 inhibitory effect at 20 nM (PDE4A1A) | PDE4 B1 inhibitory effect at 20 nM (PDE4B1) | PDE4 D2 inhibitory effect at 20 nM (PDE4D2) | inhibitory activity against PDE4A1A compared with Apremilast and WX011 (PDE4A1A; [1]) | inhibitory activity against PDE4B1 compared with Apremilast and WX011 (PDE4B1; [1]) | inhibitory activity against PDE4D2 compared with Apremilast and WX011 (PDE4D2; [1]) |
| --- | --- | --- | --- | --- | --- | --- |
| CCOc1nc([C@@H](CS(C)(=O)=O)n2c(=O)[nH]c3c(C)c(-c4c(F)cccc4F)cnc32)ccc1OC [Ex. 23, (S)-6-(2,6-difluorophenyl)-3-(1-(6-ethoxy-5-methoxypyridin-2-yl)-2-(methylsulfonyl)ethyl)-7-methyl-1H-imidazo[4,5-b]pyridin-2(3H)-one] | + | + | + |  |  |  |
| CCOc1nc([C@H](CS(C)(=O)=O)n2c(=O)[nH]c3c(C)c(-c4cccc(F)c4F)cnc32)ccc1OC [Ex. 26, (R)-6-(2,3-difluorophenyl)-3-(1-(6-ethoxy-5-methoxypyridin-2-yl)-2-(methylsulfonyl)ethyl)-7-methyl-1H-imidazo[4,5-b]pyridin-2(3H)-one] | − | − | − |  |  |  |
| CCOc1nc([C@@H](CS(C)(=O)=O)n2c(=O)[nH]c3c(C)c(-c4ccc(F)cc4F)cnc32)ccc1OC [Ex. 28, (S)-6-(2,4-difluorophenyl)-3-(1-(6-ethoxy-5-methoxypyridin-2-yl)-2-(methylsulfonyl)ethyl)-7-methyl-1H-imidazo[4,5-b]pyridin-2(3H)-one] | + | + | + |  |  |  |
| CCOc1nc([C@@H](CS(C)(=O)=O)n2c(=O)[nH]c3c(C)c(-c4cc(F)c(F)cc4F)cnc32)ccc1OC [Ex. 29, (S)-6-(2,4,5-trifluorophenyl)-3-(1-(6-ethoxy-5-methoxypyridin-2-yl)-2-(methylsulfonyl)ethyl)-7-methyl-1H-imidazo[4,5-b]pyridin-2(3H)-one] | + | + | + |  |  |  |
| CCOc1nc([C@@H](CS(C)(=O)=O)n2c(=O)[nH]c3c(C)c(-c4cc(C)ccc4C)cnc32)ccc1OC [Ex. 32, (S)-6-(2,5-dimethylphenyl)-3-(1-(6-ethoxy-5-methoxypyridin-2-yl)-2-(methylsulfonyl)ethyl)-7-methyl-1H-imidazo[4,5-b]pyridin-2(3H)-one] | + | + | + |  |  |  |
| CCOc1nc([C@@H](CS(C)(=O)=O)n2c(=O)[nH]c3c(C)c(-c4c(C)cccc4C)cnc32)ccc1OC [Ex. 34, (S)-6-(2,6-dimethylphenyl)-3-(1-(6-ethoxy-5-methoxypyridin-2-yl)-2-(methylsulfonyl)ethyl)-7-methyl-1H-imidazo[4,5-b]pyridin-2(3H)-one] | + | + | + |  |  |  |
| CCOc1nc([C@@H](CS(C)(=O)=O)n2c(=O)[nH]c3c(C)c(-c4cc(F)ccc4C)cnc32)ccc1OC [Ex. 36, (S)-6-(5-fluoro-2-methylphenyl)-3-(1-(6-ethoxy-5-methoxypyridin-2-yl)-2-(methylsulfonyl)ethyl)-7-methyl-1H-imidazo[4,5-b]pyridin-2(3H)-one] | + | + | + |  |  |  |
| CCOc1nc([C@@H](CS(C)(=O)=O)n2c(=O)[nH]c3c(C)c(-c4cccc(F)c4C)cnc32)ccc1OC [Ex. 37, (S)-6-(3-fluoro-2-methylphenyl)-3-(1-(6-ethoxy-5-methoxypyridin-2-yl)-2-(methylsulfonyl)ethyl)-7-methyl-1H-imidazo[4,5-b]pyridin-2(3H)-one] | + | + | + |  |  |  |
| CCOc1nc([C@@H](CS(C)(=O)=O)n2c(=O)[nH]c3c(C)c(-c4cc(C)ccc4F)cnc32)ccc1OC [Ex. 38, (S)-6-(2-fluoro-5-methylphenyl)-3-(1-(6-ethoxy-5-methoxypyridin-2-yl)-2-(methylsulfonyl)ethyl)-7-methyl-1H-imidazo[4,5-b]pyridin-2(3H)-one] | + | + | + |  |  |  |
| CCOc1nc([C@@H](CS(C)(=O)=O)n2c(=O)[nH]c3c(C)c(-c4cccc(C)c4F)cnc32)ccc1OC [Ex. 39, (S)-6-(2-fluoro-3-methylphenyl)-3-(1-(6-ethoxy-5-methoxypyridin-2-yl)-2-(methylsulfonyl)ethyl)-7-methyl-1H-imidazo[4,5-b]pyridin-2(3H)-one] | + | + | + |  |  |  |
| CCOc1nc([C@@H](CS(C)(=O)=O)n2c(=O)[nH]c3c(C)c(-c4ccc(C)cc4F)cnc32)ccc1OC [Ex. 40, (S)-6-(2-fluoro-4-methylphenyl)-3-(1-(6-ethoxy-5-methoxypyridin-2-yl)-2-(methylsulfonyl)ethyl)-7-methyl-1H-imidazo[4,5-b]pyridin-2(3H)-one] | + | + | + |  |  |  |

Second part, led by results:

| PDE4 A1 inhibitory effect at 20 nM (PDE4A1A) | PDE4 B1 inhibitory effect at 20 nM (PDE4B1) | PDE4 D2 inhibitory effect at 20 nM (PDE4D2) | Structure (SMILES) | inhibitory activity against PDE4A1A compared with Apremilast and WX011 (PDE4A1A; [1]) | inhibitory activity against PDE4B1 compared with Apremilast and WX011 (PDE4B1; [1]) | inhibitory activity against PDE4D2 compared with Apremilast and WX011 (PDE4D2; [1]) |
| --- | --- | --- | --- | --- | --- | --- |
| + | + | + | CCOc1nc([C@@H](CS(C)(=O)=O)n2c(=O)n(C)c3c(C)c(-c4ccccn4)cnc32)ccc1OC [Ex. 19, (S)-3-(1-(6-ethoxy-5-methoxypyridin-2-yl)-2-(methylsulfonyl)ethyl)-1,7-dimethyl-6-(pyridin-2-yl)-1H-imidazo[4,5-b]pyridin-2(3H)-one] |  |  |  |
| + | + | + | CCOc1nc([C@@H](CS(C)(=O)=O)n2c(=O)n(CCOC)c3c(C)c(-c4ccccn4)cnc32)ccc1OC [Ex. 20, (S)-3-(1-(6-ethoxy-5-methoxypyridin-2-yl)-2-(methylsulfonyl)ethyl)-1-(2-methoxyethyl)-7-methyl-6-(pyridin-2-yl)-1H-imidazo[4,5-b]pyridin-2(3H)-one] |  |  |  |
| − | − | − | CCOc1nc([C@H](CS(C)(=O)=O)n2c(=O)n(C)c3c(C)c(-c4ccccc4F)cnc32)ccc1OC [Ex. 22] |  |  |  |
| − | − | − | CCOc1nc([C@H](CS(C)(=O)=O)n2c(=O)[nH]c3c(C)c(-c4c(F)cccc4F)cnc32)ccc1OC [Ex. 24, (R)-6-(2,6-difluorophenyl)-3-(1-(6-ethoxy-5-methoxypyridin-2-yl)-2-(methylsulfonyl)ethyl)-7-methyl-1H-imidazo[4,5-b]pyridin-2(3H)-one] |  |  |  |
| + | + | + | CCOc1nc([C@@H](CS(C)(=O)=O)n2c(=O)[nH]c3c(C)c(-c4cccc(F)c4F)cnc32)ccc1OC [Ex. 25, (S)-6-(2,3-difluorophenyl)-3-(1-(6-ethoxy-5-methoxypyridin-2-yl)-2-(methylsulfonyl)ethyl)-7-methyl-1H-imidazo[4,5-b]pyridin-2(3H)-one] |  |  |  |
| − | − | − | CCOc1nc([C@H](CS(C)(=O)=O)n2c(=O)[nH]c3c(C)c(-c4cc(F)ccc4F)cnc32)ccc1OC [Ex. 30, (R)-6-(2,5-difluorophenyl)-3-(1-(6-ethoxy-5-methoxypyridin-2-yl)-2-(methylsulfonyl)ethyl)-7-methyl-1H-imidazo[4,5-b]pyridin-2(3H)-one] | significantly enhanced inhibitory activity | significantly enhanced inhibitory activity | significantly enhanced inhibitory activity |
| + | + | + | CCOc1nc([C@@H](CS(C)(=O)=O)n2c(=O)[nH]c3c(C)c(-c4cccc(C)c4C)cnc32)ccc1OC [Ex. 33, (S)-6-(2,3-dimethylphenyl)-3-(1-(6-ethoxy-5-methoxypyridin-2-yl)-2-(methylsulfonyl)ethyl)-7-methyl-1H-imidazo[4,5-b]pyridin-2(3H)-one] |  |  |  |
| + | + | + | CCOc1nc([C@@H](CS(C)(=O)=O)n2c(=O)[nH]c3c(C)c(-c4cc(OC)ccc4F)cnc32)ccc1OC [Ex. 41, (S)-6-(2-fluoro-5-methoxyphenyl)-3-(1-(6-ethoxy-5-methoxypyridin-2-yl)-2-(methylsulfonyl)ethyl)-7-methyl-1H-imidazo[4,5-b]pyridin-2(3H)-one] |  |  |  |
| + | + | + | CCOc1nc([C@@H](CS(C)(=O)=O)n2c(=O)[nH]c3c(C)c(-c4cccc(OC)c4F)cnc32)ccc1OC [Ex. 42, (S)-6-(2-fluoro-3-methoxyphenyl)-3-(1-(6-ethoxy-5-methoxypyridin-2-yl)-2-(methylsulfonyl)ethyl)-7-methyl-1H-imidazo[4,5-b]pyridin-2(3H)-one] |  |  |  |
| + | + | + | CCOc1nc([C@@H](CS(C)(=O)=O)n2c(=O)[nH]c3c(C)c(-c4ccc(OC)cc4F)cnc32)ccc1OC [Ex. 43, (S)-6-(2-fluoro-4-methoxyphenyl)-3-(1-(6-ethoxy-5-methoxypyridin-2-yl)-2-(methylsulfonyl)ethyl)-7-methyl-1H-imidazo[4,5-b]pyridin-2(3H)-one] |  |  |  |
